Source: US5416090A, “Method of treating inflammation” (priority 1992, dated 1995)

Assays:
[1] = Toxicity study / survival in mice; type: in vivo, mouse; conditions: FIG. 4; survival curve
Method: FIG. 4 Effect of 2 or 4 days treatment with compound 1 on a murine delayed type hypersensitivity (DTH) response (panel A) and toxicity study with compound 1 in mice (panel B). NEG=negative control for DTH; POS=positive control for DTH; CMC=carboxymethylcellulose (vehicle).
The activity of ergoline compounds was also evaluated in a murine delayed-type hypersensitivity (DTH) assay. The DTH assay was performed in substantial accordance with the method set forth in Example 1. Briefly, mice were sensitized by topical administration of picryl chloride on day 1 of the assay. On day 4 paw size was determined and recorded and the paw was then challenged with picryl chloride. The challenged paw was remeasured on day 5 to quantitate the DTH response via the increase in paw size. Results of the effects of compound D-1-isopropyl-6-n-propyl-8β-methylthiomethyl ergoline in the murine DTH model are presented in FIG. 4. FIG. 4, Panel A illustrates the efficacy of compound D-1-isopropyl-6-n-propyl-8β-methylthiomethyl ergoline in reducing paw swelling. […] FIG. 4, Panel B is a survival curve of mice treated with varying dosages of D-1-isopropyl-6-n-propyl-8β-methylthiomethyl ergoline.

corticosterone = test: Serum/plasma corticosterone levels in mice; type: in vivo, mouse (Balb/C); conditions: FIG. 10 Panel A; 1 and 3 hr. following injection
From the text: (§1) Dopamine agonists are known to elevate circulating glucocorticoid levels, via activation of the hypothalamo-pituitary-adrenal axis. […] Since glucocorticoids are potential endogenous anti-inflammatory substances, this action is one potential mechanism for the anti-inflammatory effect of the ergolines. However, in subsequent inflammation studies, the anti-inflammatory effects of D-1-isopropyl-6-n-propyl-8β-methylthiomethyl ergoline were retained in mice lacking an adrenal gland and therefore devoid of the increase in circulating corticosterone. (FIG. 10B)
(§2) Both Balb/C mice (male, approximately 20 g, Charles Rivers) and Lewis rats (male, approximately 200 g, Charles River or Harlan Sprague Dawley) were used in neuroendocrine studies. Animals were maintained on a 12:12 hour light:dark cycle and were allowed ad lib access for food (Purina lab chow) and water. Experimental groups consisted of 6 to 8 animals.
After dosing with test compounds, animals were sacrificed by decapitation at 1, 3, 8 or 24 hour intervals. Trunk blood was collected, allowed to clot and serum obtained after centrifugation (3000 rpm for 15 min.). Serum was aliquoted and stored at -70° C. for subsequent radioimmunoassays. Serum prolactin was determined by radioimmunoassay. Serum corticosterone levels were determined with a kit designed for such determinations and obtained from ICN.

[2] = tested on: delayed type hypersensitivity (DTH) in adrenalectomized mice; test: DTH response in adrenalectomized (ADX) mice; type: in vivo, mouse (Balb/c); conditions: FIG. 10B
From the text: CMC= carboxymethylcellulose vehicle control; NEG=negative control for DTH; POS=positive control for DTH.
as §1
Male Balb/c mice (Charles River) weighing 20 to 25 g were used in all DTH studies. When adrenalectomized studies were carried out, sham surgery and adrenalectomized mice were obtained from the vendor. Animals were maintained on a 12:12 hour light:dark cycle. […]
A DTH response was assessed by measuring the degree of rear foot pad swelling induced by picryl chloride. […] On day 3, mice were anesthetized with methoxyflurane, and the baseline rear foot pad thickness was measured with a micrometer (Mitutoyo) in μ, and was recorded in duplicate. […] Twenty-four hours later, the mice were sacrificed by CO2 asphyxiation and each rear foot pad was again measured in duplicate, and any evidence of foot pad swelling was calculated. […]

serum prolactin = test: Serum prolactin levels in rats; type: in vivo, rat (Lewis); conditions: FIG. 11, 0.3, 3 and 30 mg/kg, 1 hour post-treatment
Method: A further mechanistic study wherein rat serum prolactin levels were quantitated 1 hour post-treatment with varying doses of D-1-isopropyl-6-n-propyl-8β-methylthiomethyl ergoline is summarized in FIG. 11. […] A time course/dose response study of D-1-isopropyl-6-n-propyl-8β-methylthio-methyl ergoline effects on murine serum prolactin levels is presented in FIG. 12. […] There is however a disparity between the suppression of prolactin and anti-inflammatory activities of the ergolines with regard to the dose response profiles. Serum prolactin levels are much more sensitive to D-1-isopropyl-6-n-propyl-8β-methylthiomethyl ergoline (maximal suppression ~≤0.1 mg/kg) than are the anti-inflammatory effects 3-10 mg/kg, See FIG. 5).
as §2
After dosing with test compounds, animals were sacrificed by decapitation at 1, 3, 8 or 24 hour intervals. […] Serum prolactin was determined by radioimmunoassay. Serum corticosterone levels were determined with a kit designed for such determinations and obtained from ICN.

[3] = listed as D-1-isopropyl-6-n-propyl-8β-methylthiomethyl ergoline

Q: For `CCCN1C[C@H](CSC)C[C@@H]2c3cccc4c3c(cn4C(C)C)C[C@H]21` [Compound 1, D-1-isopropyl-6-n-propyl-8β-methylthiomethyl ergoline], which “efficacious DTH dosages relative to toxic level” value [1] is on record?
A: well within the toxic level of the compound

Q: And the “effect on plasma corticosterone” value (corticosterone)?
A: increase plasma cortiosterone

Q: What about the “anti-inflammatory effect in mice lacking an adrenal gland” value [2, 3] of the same molecule?
A: retained

Q: And the “anti-inflammatory effect in mice lacking an adrenal gland” value ([2]; listed as compound 1)?
A: inhibitory effect

Q: What about the serum prolactin levels (serum prolactin; [3]) of the same molecule?
A: dramatically reduced serum prolactin levels

Q: And the serum prolactin levels (serum prolactin; listed as compound 1)?
A: Suppression of serum prolactin levels
